Here are results for ten compounds from BindingDB's records for doi:10.1016/j.bioorg.2017.05.009 (Kinnaird College for Women, 2017).

Broadly, the IC50 is the point on the concentration scale where inhibition reaches its midpoint.

Chain of Alpha-glucosidase MAL32 (P38158 whole entry): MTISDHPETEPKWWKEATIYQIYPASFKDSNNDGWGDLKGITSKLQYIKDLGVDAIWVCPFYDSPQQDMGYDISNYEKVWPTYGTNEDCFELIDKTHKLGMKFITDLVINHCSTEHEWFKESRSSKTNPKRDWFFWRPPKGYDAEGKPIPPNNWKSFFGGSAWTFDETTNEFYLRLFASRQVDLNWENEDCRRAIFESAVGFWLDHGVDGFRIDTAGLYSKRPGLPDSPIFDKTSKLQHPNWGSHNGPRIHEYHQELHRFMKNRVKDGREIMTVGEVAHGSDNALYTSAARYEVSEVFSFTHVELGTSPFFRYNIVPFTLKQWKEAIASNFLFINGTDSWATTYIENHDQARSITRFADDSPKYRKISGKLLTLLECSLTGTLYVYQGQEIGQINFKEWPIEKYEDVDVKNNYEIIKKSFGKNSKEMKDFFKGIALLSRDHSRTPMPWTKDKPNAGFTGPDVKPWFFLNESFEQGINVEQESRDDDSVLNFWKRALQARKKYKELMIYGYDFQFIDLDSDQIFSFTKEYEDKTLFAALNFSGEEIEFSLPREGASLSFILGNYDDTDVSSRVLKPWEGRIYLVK

This assay addresses Alpha-glucosidase MAL32 (Saccharomyces cerevisiae, UniProt P38158). The experiment in a line: α-Glucosidase Inhibition Assay. The note with it: pH 6.8; 37 °C. On the procedure: For α-glucosidase inhibition assay, α-glucosidase enzyme (Cat No. 5003-1KU Type I; isolated from Saccharomyces cereviciae) was used. Acarbose was the reference standard and Pierre's methodology was employed [Pierre et al., J. Clin. Chem., 24:208-211]. First absorbance was taken at 400 nm after the 10 min incubation of a mixture of phosphate buffer ([…], pH 6.8), test compound ([…], 0.5 mM) and enzyme ([…], 0.0234 units, Sigma Inc.). Later, […] of p-nitrophenyl-α-D-glucopyranoside (0.5 mM, code No. N1377 from Sigma Inc) was added. After 30 min incubation at 37 °C, the absorbance was retaken at 400 nm.
The compound `Cc1cc(C)cc(-n2c(-c3cn(-c4ccccc4)nc3C3=CC4C=CC=CC4OC3=O)nc(-c3ccccc3)c2-c2ccccc2)c1` (stereo not given) [3-(4-(1-(3,5-Dimethylphenyl)-4,5-diphenyl-1H-imidazol-2-yl)-1-phenyl-1H-pyrazol-3-yl)-4a,8a-dihydro-2H-chromen-2-one (3d)] registered a half-maximal inhibitory concentration (IC50) of 46.4 µM.

Consider `O=C1OC2C=CC=CC2C=C1c1nn(-c2ccccc2)cc1-c1nc(-c2ccccc2)c(-c2ccccc2)n1-c1ccc(Br)cc1` (stereo not given) [3-(4-(1-(4-Bromophenyl)-4,5-diphenyl-1H-imidazol-2-yl)-1-phenyl-1H-pyrazol-3-yl)-4a,8a-dihydro-2H-chromen-2-one (3b)], for which the IC50 was found to be 34.3 µM.

On to `O=C1OC2C=CC=CC2C=C1c1nn(-c2ccccc2)cc1-c1nc(-c2ccccc2)c(-c2ccccc2)n1-c1ccc(Cl)cc1` (stereo not given) [3-(4-(1-(4-Chlorophenyl)-4,5-diphenyl-1H-imidazol-2-yl)-1-phenyl-1H-pyrazol-3-yl)-4a,8a-dihydro-2H-chromen-2-one (3a)], for which the midpoint of inhibition, the IC50, lay at 12.7 µM.

Compound `COc1ccc(-n2c(-c3cn(-c4ccccc4)nc3C3=CC4C=CC=CC4OC3=O)nc(-c3ccccc3)c2-c2ccccc2)cc1` (stereo not given) [3-(4-(1-(4-Methoxyphenyl)-4,5-diphenyl-1H-imidazol-2-yl)-1-phenyl-1H-pyrazol-3-yl)-4a,8a-dihydro-2H-chromen-2-one (3c)] gave an IC50 of 25.4 µM.

In turn, `CCCn1c(-c2cn(-c3ccccc3)nc2C2=CC3C=CC=CC3OC2=O)nc(-c2ccccc2)c1-c1ccccc1` (stereo not given) [3-(4-(4,5-Diphenyl-1-propyl-1H-imidazol-2-yl)-1-phenyl-1Hpyrazol-3-yl)-4a,8a-dihydro-2H-chromen-2-one (3e)] came in with an IC50 of 44.8 µM.

Consider `Cc1cc(C)cc(-n2c(-c3cn(-c4ccccc4)nc3C3=CC4C=C(Br)C=CC4OC3=O)nc(-c3ccccc3)c2-c2ccccc2)c1` (stereo not given) [6-Bromo-3-(4-(1-(3,5-dimethylphenyl)-4,5-diphenyl-1Himidazol-2-yl)-1-phenyl-1H-pyrazol-3-yl)-4a,8a-dihydro-2Hchromen-2-one (3g)], for which half-maximal inhibition (IC50) required 5.64 µM.

Compound `O=c1oc2ccc(Br)cc2cc1-c1nn(-c2ccccc2)cc1-c1nc(-c2ccccc2)c(-c2ccccc2)n1-c1ccc(Br)cc1` [6-Bromo-3-(4-(1-(4-bromophenyl)-4,5-diphenyl-1H-imidazol-2-yl)-1-phenyl-1H-pyrazol-3-yl)-2H-chromen-2-one (3j)] came in with an IC50 of 5.21 µM. The IC50 values of the last two compounds are within 1.5-fold of each other.

For `O=c1oc2ccc(Br)cc2cc1-c1nn(-c2ccccc2)cc1-c1nc(-c2ccccc2)c(-c2ccccc2)n1-c1ccc(Cl)cc1` [6-Bromo-3-(4-(1-(4-chlorophenyl)-4,5-diphenyl-1H-imidazol-2-yl)-1-phenyl-1H-pyrazol-3-yl)-2H-chromen-2-one (3f)], it took 2.53 µM to reach half-maximal inhibition (IC50).

With `COc1ccc(-n2c(-c3cn(-c4ccccc4)nc3-c3cc4cc(Br)ccc4oc3=O)nc(-c3ccccc3)c2-c2ccccc2)cc1` [6-Bromo-3-(4-(1-(4-methoxyphenyl)-4,5-diphenyl-1Himidazol-2-yl)-1-phenyl-1H-pyrazol-3-yl)-2H-chromen-2-one (3h)], the half-maximal inhibitory concentration (IC50) worked out at 9.27 µM. Compared with the last compound, the IC50 is about 3.7-fold higher.

Compound `Cc1ccc(-n2c(-c3cn(-c4ccccc4)nc3-c3cc4cc(Br)ccc4oc3=O)nc(-c3ccccc3)c2-c2ccccc2)cc1` [6-Bromo-3-(4-(4,5-diphenyl-1-(p-tolyl)-1H-imidazol-2-yl)-1-phenyl-1H-pyrazol-3-yl)-2H-chromen-2-one (3i)] gave an IC50 of 5.83 µM. Against the preceding compound, the IC50 is about 1.6-fold lower.
